Measured values published in patent US20260092061A1, “COMPOUNDS FOR TARGETED PROTEIN DEGRADATION” (Amphista Therapeutics Limited, priority 2022, published 2026).

Columns and labels:
BRD9 [1] = molecular target: T1, BRD9 (Homo sapiens, UniProt Q9H8M2); test: Degradation of BRD9 (IF), immunofluorescence in MV4-11 cells, 24 hours (Assay Protocol 2); type: cell-based; parameters: A suspension of MV4-11 cells (ATCC CRL-9591) was prepared; host or cells: MV4-11
T1 sequence (Q9H8M2 1-597): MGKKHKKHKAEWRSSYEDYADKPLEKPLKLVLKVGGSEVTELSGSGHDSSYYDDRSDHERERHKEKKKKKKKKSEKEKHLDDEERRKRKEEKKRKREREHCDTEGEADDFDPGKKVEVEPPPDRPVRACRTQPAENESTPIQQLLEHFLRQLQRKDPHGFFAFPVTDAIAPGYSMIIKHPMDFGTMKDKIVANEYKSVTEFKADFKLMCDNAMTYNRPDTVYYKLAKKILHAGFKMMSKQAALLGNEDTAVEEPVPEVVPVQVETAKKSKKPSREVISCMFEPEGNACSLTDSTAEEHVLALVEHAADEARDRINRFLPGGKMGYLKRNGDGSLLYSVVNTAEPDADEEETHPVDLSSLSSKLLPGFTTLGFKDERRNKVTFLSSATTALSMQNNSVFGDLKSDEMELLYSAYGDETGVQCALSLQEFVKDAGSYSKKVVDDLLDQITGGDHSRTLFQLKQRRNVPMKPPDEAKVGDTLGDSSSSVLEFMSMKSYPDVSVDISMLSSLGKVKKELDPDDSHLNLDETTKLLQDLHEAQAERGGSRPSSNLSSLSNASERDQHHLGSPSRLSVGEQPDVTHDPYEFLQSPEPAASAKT
Method in brief: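 MV4-11 cells treated with compound 24 h at 37° C., then fixed, permeabilised and immunostained for BRD9 (anti-BRD9 E4Q3F, Alexa 647 secondary, Hoechst counterstain). High-content imaging quantified nuclear BRD9 signal; % BRD9 remaining normalised to DMSO and 100 nM CFT-8634 controls.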

BRD9 [2] = molecular target: T1, BRD9; test: BRD9 degradation, HiBiT-BRD9 KI HEK293 (LgBiT) cells, NanoGlo Lytic Endpoint assay (Assay Protocol 1); type: cell-based; conditions: for Dmax: HEK293
Method in brief: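 HiBiT-tagged BRD9 knock-in HEK293 (LgBiT) cells exposed to compounds for 6 h at 37 °C, 5% CO2. Residual BRD9 measured by HiBiT lytic luminescence. % BRD9 remaining normalised to DMSO-treated cells (high) and no-cell wells (low).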

[3] = MV4-11, Table 4, BRD9 degradation, determined according to Assay Protocol 2, read-out: Dmax^2
[4] = Table 4, BRD9 degradation, determined according to Assay Protocol 1, read-out: DC50^1

| SMILES | Dmax (BRD9 [1]; [3]) | Dmax (BRD9 [1]; MV4-11, Table 5, cells marked *: measured in accordance with Assay Protocol 2, read-out: BRD9 Dmax (%)) | DC50 (BRD9 [1]; Table 5, cells marked *: measured in accordance with Assay Protocol 2, read-out: BRD9 DC50) | DC50 (BRD9 [2]; [4]) | DC50 (BRD9 [1]; Table 4, BRD9 degradation, determined according to Assay Protocol 2, read-out: DC50^2) | Dmax (BRD9 [2]; Table 4, BRD9 degradation, determined according to Assay Protocol 1, read-out: Dmax^1) | Dmax (BRD9 [2]; Table 5, assay protocol 1, read-out: BRD9 Dmax (%)) | DC50 (BRD9 [2]; Table 5, assay protocol 1, read-out: BRD9 DC50) |
| --- | --- | --- | --- | --- | --- | --- | --- | --- |
| COc1cc(-c2cn(C)c(=O)c(C)c2C)cc(OC)c1CN1CCN(C(=O)/C(C#N)=C/C(C)(C)C)C2(CC2)C1 [BRD9e, (E/Z)-2-(7-(2,6-dimethoxy-4-(1,4,5-trimethyl-6-oxo-1,6-dihydropyridin-3-yl)benzyl)-4,7-diazaspiro[2,5]octane-4-carbonyl)-4,4-dimethylpent-2-enenitrile] | 30 to 50% | 25 to 40% | > 1000 nM | > 200 nM | – | – | – | – |
| COc1cc(-c2cn(C)c(=O)c(C)c2C)cc(OC)c1CN1CCN(C(=O)/C(C#N)=C/c2cccc(Br)n2)CC1 [BRD9h, (E/Z)-3-(6-bromopyridin-2-yl)-2-(4-(2,6-dimethoxy-4-(1,4,5-trimethyl-6-oxo-1,6-dihydropyridin-3-yl)benzyl)piperazine-1-carbonyl)acrylonitrile] | > 70% | – | – | < 25 nM | < 25 nM | > 70% | > 75% | < 1.25 nM |
